Drawing on PubChem BioAssay (NCI), this text covers GI50 and TGI for nine compounds.

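Step 1: Grow cells in 96-well plates. Step 2: Expose to compound for 48 hours at 5 concentrations. Step 3: Interpolate endpoints linearly; if unreached, use highest concentration. GI50: concentration for 50% inhibition of growth. TGI denotes the concentration required for complete inhibition of growth.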 Some results are limits rather than exact numbers.

Among the test systems are NCI-H226 lung; HOP-92 NSCLC; IGROV1 ovarian; A549 NSCLC; SF-295 CNS; MDA-MB-231 breast; ACHN renal; RXF 393 renal; SN12C renal; DU-145 prostate.
Experiment in all cases: NCI anticancer screen, dose series, 48 h

In the case of `O=[N+]([O-])c1ccccc1/C=N\NC(=S)N/N=C/c1ccccc1[N+](=O)[O-]`, the GI50 with NCI-H226 lung was 75.4 µM; in the assay on HOP-92 NSCLC, 26.2 µM; in the assay on IGROV1 ovarian it was 3.67 µM; with A549 NSCLC, 8.92 µM; in the assay with SF-295 CNS, 1.87 µM; in the assay with MDA-MB-231 breast, 37.8 µM. The GI50 in the assay with ACHN renal is 7.53 µM; in the assay with RXF 393 renal, 11.6 µM; with SN12C renal it was 10.6 µM; with DU-145 prostate it was 5.34 µM. The TGI is above 100 µM with NCI-H226 lung; above 100 µM in the assay with HOP-92 NSCLC; above 100 µM in the assay on IGROV1 ovarian; above 100 µM in the assay on A549 NSCLC; 7.41 µM in the assay with SF-295 CNS; above 100 µM with MDA-MB-231 breast. Further, the TGI in the assay with ACHN renal was above 100 µM; with RXF 393 renal, above 100 µM; with SN12C renal, above 100 µM; with DU-145 prostate, 38.2 µM.

Turning to `O=[N+]([O-])c1ccc(Sc2cccc[n+]2[O-])c2nonc12`, the GI50 in the assay with NCI-H226 lung is 21 µM; in the assay with HOP-92 NSCLC it was 5.45 µM; in the assay with IGROV1 ovarian, 3.21 µM; in the assay with A549 NSCLC it was 5.61 µM; with SF-295 CNS, 3.37 µM; in the assay on MDA-MB-231 breast, 4.7 µM. Also, the GI50 in the assay with ACHN renal is 3.67 µM; in the assay with RXF 393 renal, 2.12 µM; in the assay on SN12C renal, 8.04 µM; in the assay on DU-145 prostate, 3.55 µM. In addition, the TGI in the assay with NCI-H226 lung is above 65.3 µM; in the assay on HOP-92 NSCLC, 23.7 µM; in the assay on IGROV1 ovarian, 14.5 µM; in the assay with A549 NSCLC it was above 57.2 µM; with SF-295 CNS, 43.7 µM; with MDA-MB-231 breast, 16 µM. The TGI in the assay with ACHN renal was 14.2 µM; in the assay with RXF 393 renal, 6.32 µM; in the assay on SN12C renal it was 22.6 µM; in the assay with DU-145 prostate it was 13.1 µM.

Regarding `COc1ccc2[nH]c3c(C)c4c(c(C)c3c2c1)CN(C)C=C4`, the TGI in the assay with NCI-H226 lung turned out to be 1.36 µM; in the assay on HOP-92 NSCLC, 19.5 µM; in the assay with IGROV1 ovarian, 39.8 µM; in the assay with A549 NSCLC it was 23.6 µM; with SF-295 CNS, 2.7 µM; in the assay on MDA-MB-231 breast, 70 µM. The TGI in the assay with ACHN renal was determined as 64 µM; with RXF 393 renal, 30.4 µM; in the assay with SN12C renal, 0.985 µM; in the assay with DU-145 prostate it was 33.8 µM.

`C=C1C(=O)OC2CC1C(OC(=O)/C=C/c1ccccc1)C/C(C)=C/CC/C(C)=C/CCC2(C)O` (stereo not given): the TGI in the assay with NCI-H226 lung came to 3.57 µM; in the assay with HOP-92 NSCLC, 4.03 µM; in the assay with IGROV1 ovarian, 3.07 µM; in the assay on A549 NSCLC, 3.19 µM; in the assay on SF-295 CNS, 3.01 µM; in the assay on MDA-MB-231 breast it was 5.39 µM. In addition, the TGI was determined as 3.08 µM with ACHN renal, 2.72 µM in the assay with RXF 393 renal, 3.04 µM with SN12C renal and 2.77 µM with DU-145 prostate.

For the compound `O=C(O)/C=C/c1c2ccc(=O)c(O)c-2oc2c(O)c(O)ccc12`, the TGI with NCI-H226 lung is above 100 µM; in the assay with HOP-92 NSCLC, above 100 µM; with IGROV1 ovarian, above 100 µM; in the assay with A549 NSCLC, above 100 µM; in the assay with SF-295 CNS, 55 µM; in the assay with MDA-MB-231 breast, 66.5 µM. Moreover, the TGI in the assay with ACHN renal was above 100 µM; in the assay on RXF 393 renal, above 100 µM; with SN12C renal, 32.3 µM; in the assay with DU-145 prostate, above 100 µM.

`CCN1C(=O)N(CC)C2C1NN=c1s/c(=C3\C(=O)Nc4ccccc43)c(=O)n12` (stereo not given): the GI50 in the assay on NCI-H226 lung was 0.544 µM; in the assay on HOP-92 NSCLC, 0.598 µM; in the assay on IGROV1 ovarian, 0.616 µM; in the assay on A549 NSCLC it was 0.812 µM; in the assay with SF-295 CNS it was 0.463 µM; with MDA-MB-231 breast, 2.41 µM. Moreover, the GI50 with ACHN renal was 0.606 µM; in the assay with RXF 393 renal it was 0.279 µM; with SN12C renal, 0.6 µM; in the assay with DU-145 prostate, 0.492 µM. Also, the TGI in the assay with NCI-H226 lung was 55.5 µM; with HOP-92 NSCLC it was 32.5 µM; in the assay on IGROV1 ovarian, 24.6 µM; in the assay with A549 NSCLC, above 100 µM; in the assay on SF-295 CNS, 12.4 µM; with MDA-MB-231 breast, 49.9 µM. In addition, the TGI is above 47.6 µM in the assay on ACHN renal, 1.05 µM in the assay on RXF 393 renal, above 100 µM with SN12C renal and 33.6 µM with DU-145 prostate.

`NCC(=O)Nc1ccc(Cl)cc1C(=O)c1ccc[nH]1`: the TGI in the assay on NCI-H226 lung was above 100 µM; with HOP-92 NSCLC, above 76.5 µM; with IGROV1 ovarian, above 100 µM; in the assay on A549 NSCLC, above 100 µM; in the assay on SF-295 CNS, above 100 µM; in the assay on MDA-MB-231 breast, above 100 µM. The TGI with ACHN renal, with RXF 393 renal, in the assay on SN12C renal and with DU-145 prostate was above 100 µM in each case.

Turning to `O=NNc1ccc(-c2ccccc2)cn1`, the TGI with NCI-H226 lung was above 64.6 µM; in the assay with HOP-92 NSCLC it was 8.45 µM; in the assay on IGROV1 ovarian, above 81.3 µM; in the assay with A549 NSCLC, above 92.3 µM; in the assay on SF-295 CNS, 62.2 µM; in the assay on MDA-MB-231 breast, above 78.1 µM. In addition, the TGI is 15 µM in the assay with ACHN renal, 12.7 µM with RXF 393 renal, above 35.1 µM in the assay on SN12C renal and 9.78 µM in the assay with DU-145 prostate.

In the case of `O=C1c2ccccc2C(=O)c2c1ccc1conc21`, the TGI in the assay on NCI-H226 lung came to 14.9 µM; in the assay on HOP-92 NSCLC, 3.04 µM; in the assay with IGROV1 ovarian, 5.88 µM; with A549 NSCLC it was 11.2 µM; in the assay on SF-295 CNS, 4.97 µM; in the assay with MDA-MB-231 breast it was 1.42 µM. Moreover, the TGI in the assay on ACHN renal is 3.75 µM; with RXF 393 renal it was 5.64 µM; in the assay on SN12C renal, 3.61 µM; with DU-145 prostate, 7.07 µM.
